# Results published in patent publication US8217023B2, “19-nor-vitamin D analogs with 1,2- or 3,2-cyclopentene ring” (Wisconsin Alumni Research Foundation, priority 2009, dated 2012).
# “Also recorded” adds a separate entry of the source. Read-outs that look alike come from different tables or passages of the source.
# Key:
# [1] = target: T1, full-length recombinant rat vitamin D receptor (Rattus norvegicus, UniProt P13053); assay: Vitamin D receptor binding (competition with [3H]-1,25(OH)2D3)
# T1 construct: Full-length recombinant rat receptor was expressed in E. coli; histidine tag (C); made in house; host or cells: E. coli BL21 (DE3) Codon Plus RTL
# T1 sequence (P13053 1-423): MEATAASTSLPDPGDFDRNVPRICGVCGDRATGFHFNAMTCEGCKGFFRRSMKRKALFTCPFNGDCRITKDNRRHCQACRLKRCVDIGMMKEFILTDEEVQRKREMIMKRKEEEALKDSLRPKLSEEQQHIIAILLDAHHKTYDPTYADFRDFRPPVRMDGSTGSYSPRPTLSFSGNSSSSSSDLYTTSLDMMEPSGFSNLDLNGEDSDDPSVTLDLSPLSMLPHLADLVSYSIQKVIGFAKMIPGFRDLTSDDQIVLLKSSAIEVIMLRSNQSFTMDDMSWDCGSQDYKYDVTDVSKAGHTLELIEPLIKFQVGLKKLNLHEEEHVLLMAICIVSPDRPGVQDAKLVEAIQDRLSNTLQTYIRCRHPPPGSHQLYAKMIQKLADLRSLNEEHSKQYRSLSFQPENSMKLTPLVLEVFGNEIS
# Method: Full-length recombinant rat receptor was expressed in E. coli BL21 (DE3) Codon Plus RTL cells and purified to homogeneity using two different column chromatography systems. The first system was a nickel affinity resin that utilizes the C-terminal histidine tag on this protein. The protein that was eluted from this resin was further purified using ion exchange chromatography (S-Sepharose Fast Flow). Aliquots of the purified protein were quick frozen in liquid nitrogen and stored at −80° C. until use. For use in binding assays, the protein was diluted in TEDK50 (50 mM Tris, 1.5 mM EDTA, pH7.4, 5 mM DTT, 150 mM KCl) with 0.1% Chaps detergent. The receptor protein and ligand concentration were optimized such that no more than 20% of the added radiolabeled ligand was bound to the receptor.
# Radiolabeled and unlabeled ligands were added to 100 mcl of the diluted protein at a final ethanol concentration of ≦10%, mixed and incubated overnight on ice to reach binding equilibrium. The following day, 100 mcl of hydroxylapatite slurry (50%) was added to each tube and mixed at 10-minute intervals for 30 minutes. The hydroxylapaptite was collected by centrifugation and then washed three times with Tris-EDTA buffer (50 mM Tris, 1.5 mM EDTA, pH 7.4) containing 0.5% Titron X-100. After the final wash, the pellets were transferred to scintillation vials containing 4 ml of Biosafe II scintillation cocktail, mixed and placed in a scintillation counter. Total binding was determined from the tubes containing only radiolabeled ligand.
# [2] = test system: Human promyelocytic leukemia (HL60) cells; assay: HL-60 differentiation (nitro blue tetrazolium reduction); format: cell-based; settings: for EC50: HL-60 cells into monocytes, read-out: EC50, HL-60 cell differentiation
# Method: The study drugs were dissolved in ethanol and the concentrations determined using UV spectrophotometry. Serial dilutions were prepared so that a range of drug concentrations could be tested without changing the final concentration of ethanol (≦0.2%) present in the cell cultures.
# Human promyelocytic leukemia (HL60) cells were grown in RPMI-1640 medium containing 10% fetal bovine serum. The cells were incubated at 37° C. in the presence of 5% CO2.
# HL60 cells were plated at 1.2×10^5 cells/ml. Eighteen hours after plating, cells in duplicate were treated with drug. Four days later, the cells were harvested and a nitro blue tetrazolium reduction assay was performed (Collins et al., 1979; J. Exp. Med. 149:969-974). The percentage of differentiated cells was determined by counting a total of 200 cells and recording the number that contained intracellular black-blue formazan deposits. Verification of differentiation to monocytic cells was determined by measuring phagocytic activity (data not shown).
# [3] = test system: 24-hydroxylase (24Ohase) gene promoter in ROS 17/2.8 (bone) cells; assay: In vitro transcription assay (24-hydroxylase promoter luciferase reporter); format: cell-based; settings: for EC50: 24-hydroxylase (CYP-24) promoter driving luciferase reporter, read-out: EC50, transcriptional activity in bone cells; for transcriptional activity in bone cells (in words): FIG. 3
# Method: Transcription activity was measured in ROS 17/2.8 (bone) cells that were stably transfected with a 24-hydroxylase (24Ohase) gene promoter upstream of a luciferase reporter gene (Arbour et al., 1998). Cells were given a range of doses. Sixteen hours after dosing the cells were harvested and luciferase activities were measured using a luminometer.
# RLU=relative luciferase units.
EC50 ([2]; Homo sapiens),EC50 [3],"Ki ([1]; full-length recombinant rat vitamin D receptor, read-out: Ki, competition with [3H]-1,25(OH)2D3 for binding to VDR)","VDR affinity, times less potent than 1,25-(OH)2D3 ([1]; relative to 1,25-(OH)2D3)",SMILES,VDR binding activity (in words) ([1]; FIG. 1),HL-60 cell differentiation activity (in words) ([2]; FIG. 2),transcriptional activity in bone cells (in words) [3],EC50 [2],"HL-60 cell differentiation, times less potent than the natural hormone ([2]; relative to the natural hormone)","transcription of the 24-hydroxylase gene, times less potent than 1,25-(OH)2D3 ([3]; relative to 1,25-(OH)2D3)","gene transactivation, lower potency than the native hormone ([3]; relative to the native hormone)"
> 1000 nM,> 1000 nM,,,"C[C@H](CCCC(C)(C)O)C1CCC2/C(=C/C=C3\C[C@@H]4CCC=C4[C@H](O)C3)CCC[C@@]21C (stereo partly drawn) [DO-REVA, 1,2-cyclopentene-25-hydroxy-19-nor-vitamin D3]",little to no binding affinity; also recorded: little to no receptor binding activity,little to no ability to induce differentiation; also recorded: little to no cellular differentiation activity,weak transcriptional activity; also recorded: measurable transcription activity at the higher concentrations tested; also recorded: measurable transcriptional activity at the higher concentrations tested,,,,
30 nM,10 nM,2 nM,~20 times,"C[C@H](CCCC(C)(C)O)C1CCC2/C(=C/C=C3/C[C@@H]4CCC=C4[C@H](O)C3)CCC[C@@]21C (stereo partly drawn) [DO-REVB, 3,2-cyclopentene-1α-25-dihydroxy-19-nor-vitamin D3]",,,weak transcriptional activity,,~10 times,~20 times,2 fold

SMILES,EC50 ([2]; Homo sapiens),EC50 [3],"Ki ([1]; full-length recombinant rat vitamin D receptor, read-out: Ki, competition with [3H]-1,25(OH)2D3 for binding to VDR)","VDR affinity, times less potent than 1,25-(OH)2D3 ([1]; relative to 1,25-(OH)2D3)",VDR binding activity (in words) ([1]; FIG. 1),HL-60 cell differentiation activity (in words) ([2]; FIG. 2),transcriptional activity in bone cells (in words) [3],EC50 [2],"HL-60 cell differentiation, times less potent than the natural hormone ([2]; relative to the natural hormone)","transcription of the 24-hydroxylase gene, times less potent than 1,25-(OH)2D3 ([3]; relative to 1,25-(OH)2D3)","gene transactivation, lower potency than the native hormone ([3]; relative to the native hormone)"
"C=C1/C(=C\C=C2/CCC[C@]3(C)[C@@H]([C@H](C)CCCC(C)(C)O)CC[C@@H]23)C[C@@H](O)C[C@@H]1O [1α,25-dihydroxyvitamin D3, reference compound]",,0.2 nM,,,,,,2 nM,,,
